The term IC50 denotes the concentration that gives 50% inhibition.

This experiment deals with T1, K-Ras / Raf RBD interaction (Homo sapiens, UniProt P01116, G12V).
T1 construct: The G12V mutant K-Ras (amino acids 1-185) was recombinantly fused; GST (N, cleaved yes); made in house; host or cells: Escherichia coli BL21
As to the kind of experiment: HTRF assay, inhibition of Ras-Raf RBD interaction.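 For all read-outs here: HTRF signal read after overnight incubation of the assay plate at 4 °C.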 The format is binding. The following applies: for increase in Ras binding affinity upon residue substitution: relative to parent 9A5/9A6.

Square brackets hold non-standard residues; d marks the D form. Side chains are listed from the residue outwards. Peptide text beside a SMILES is read from it. * marks the point of attachment. Phe(3,4-F2) = N[C@@H](Cc1ccc(F)c(F)c1)C(=O)O; Phe(4-F) = N[C@@H](Cc1ccc(F)cc1)C(=O)O; 2Nal = N[C@@H](Cc1ccc2ccccc2c1)C(=O)O; d2Nal = N[C@H](Cc1ccc2ccccc2c1)C(=O)O; Tle = CC(C)(C)[C@H](N)C(=O)O; X5 = O=C(c1cc(F)cc(Br)c1)*; dNle = CCCC[C@@H](N)C(=O)O; X3 = N#Cc1ccc(C(=O)*)cc1; Dap = NC[C@H](N)C(=O)O

`CCCC[C@H]1NC(=O)[C@H](Cc2ccc(F)cc2)NC(=O)[C@H](CCCNC(=N)N)NC(=O)[C@@H](Cc2ccc3ccccc3c2)NC(=O)[C@H](CCCNC(=N)N)NC(=O)[C@H](CCCNC(=N)N)NC(=O)[C@H](CCCNC(=N)N)NC(=O)[C@@H](C)NC(=O)[C@H]([C@@H](C)O)NC(=O)[C@H](Cc2ccc3ccccc3c2)NC(=O)[C@H](CCC(N)=O)NC1=O` [Cyclorasin 9A49, (Nal-Thr-ala-Arg-Arg-Arg-nal-Arg-Fpa-nle-Gln)] (cyclo([2Nal]T[dA]RRR[d2Nal]R[Phe(4-F)][dNle]Q)) showed a 50% inhibitory concentration (IC50) of 100 ± 10 nM. `CCCC[C@H]1NC(=O)[C@H](Cc2ccc(F)c(F)c2)NC(=O)[C@H](CCCNC(=N)N)NC(=O)[C@@H](Cc2ccc3ccccc3c2)NC(=O)[C@H](CCCNC(=N)N)NC(=O)[C@H](CCCNC(=N)N)NC(=O)[C@H](CCCNC(=N)N)NC(=O)[C@@H](C(C)C)NC(=O)[C@H](C(C)(C)C)NC(=O)[C@H](Cc2c[nH]c3ccccc23)NC(=O)[C@H](CCC(N)=O)NC1=O` [Cyclorasin 9A54, (Trp-Tle-val-Arg-Arg-Arg-nal-Arg-Phe(3,4-difluoro)-nle-Gln)] (cyclo(W[Tle][dV]RRR[d2Nal]R[Phe(3,4-F2)][dNle]Q)): the IC50 stood at 18 nM. `CC(C)C[C@H]1NC(=O)[C@H](Cc2ccc(F)cc2)NC(=O)[C@H](CCCNC(=N)N)NC(=O)[C@@H](Cc2ccc3ccccc3c2)NC(=O)[C@H](CCCNC(=N)N)NC(=O)[C@H](CCCNC(=N)N)NC(=O)[C@@H](CCCNC(=N)N)NC(=O)[C@@H](C)NC(=O)[C@H]([C@@H](C)O)NC(=O)[C@H](Cc2c[nH]c3ccccc23)NC(=O)[C@H](CCC(N)=O)NC1=O` [Cyclorasin 9A10, (Trp-Thr-ala-arg-Arg-Arg-nal-Arg-Fpa-leu-Gln)] (cyclo(WT[dA][dR]RR[d2Nal]R[Phe(4-F)][dL]Q)) came in with a half-inhibitory concentration (IC50) of 240 ± 130 nM. Same read-out and setting: next, `CCCC[C@H]1NC(=O)[C@H](CNC(=O)c2cc(F)cc(Br)c2)NC(=O)[C@H](CCCNC(=N)N)NC(=O)[C@@H](Cc2ccc3ccccc3c2)NC(=O)[C@H](CCCNC(=N)N)NC(=O)[C@H](CCCNC(=N)N)NC(=O)[C@H](CCCNC(=N)N)NC(=O)[C@@H](C)NC(=O)[C@H]([C@@H](C)O)NC(=O)[C@H](Cc2c[nH]c3ccccc23)NC(=O)[C@H](CCC(N)=O)NC1=O` [Cyclorasin 9A44a, (Trp-Thr-ala-Arg-Arg-Arg-nal-Arg-Dap(3-bromo-5-fluorobenzoyl)-nle-Gln)] (cyclo(WT[dA]RRR[d2Nal]R[Dap](X5)[dNle]Q)): 83 ± 8 nM.

As for `CCCC[C@H]1NC(=O)[C@H](Cc2ccc(F)cc2)NC(=O)[C@H](CCCNC(=N)N)NC(=O)[C@@H](Cc2ccc3ccccc3c2)NC(=O)[C@H](CCCNC(=N)N)NC(=O)[C@H](C)NC(=O)[C@H](CCC(=O)N[C@@H](CCCCN)C(N)=O)NC(=O)[C@@H](C)NC(=O)[C@H]([C@@H](C)O)NC(=O)[C@H](Cc2c[nH]c3ccccc23)NC(=O)[C@@H](CO)NC1=O` [Cyclorasin 9A(Arg1A), (Ala-Arg-nal-Arg-Fpa-nle-ser-Trp-Thr-ala-Gln)-Lys] (cyclo(AR[d2Nal]R[Phe(4-F)][dNle][dS]WT[dA]E([Lys-NH2]))), the IC50 worked out at 1300 ± 200 nM. Regarding `CCCC[C@H]1NC(=O)[C@H](Cc2ccc(F)cc2)NC(=O)[C@H](CCCNC(=N)N)NC(=O)[C@@H](Cc2ccc3ccccc3c2)NC(=O)[C@H](CCCNC(=N)N)NC(=O)[C@H](CCCNC(=N)N)NC(=O)[C@@H](CCCNC(=N)N)NC(=O)[C@@H](C)NC(=O)[C@H](C(C)(C)C)NC(=O)[C@H](Cc2c[nH]c3ccccc23)NC(=O)[C@H](CCC(N)=O)NC1=O` [Cyclorasin 9A16, (Trp-Tle-ala-arg-Arg-Arg-nal-Arg-Fpa-nle-Gln)] (cyclo(W[Tle][dA][dR]RR[d2Nal]R[Phe(4-F)][dNle]Q)), half-maximal inhibition (IC50) was put at 110 ± 10 nM and the “increase in Ras binding affinity upon residue substitution” value is around 2 fold.

`CCCC[C@H]1NC(=O)[C@H](Cc2ccc(F)cc2)NC(=O)[C@H](CCCNC(=N)N)NC(=O)[C@@H](Cc2ccc3ccccc3c2)NC(=O)[C@H](CCCNC(=N)N)NC(=O)[C@H](CCCNC(=N)N)NC(=O)[C@H](CCCNC(=N)N)NC(=O)[C@@H](C(C)C)NC(=O)[C@H](C(C)(C)C)NC(=O)[C@H](Cc2c[nH]c3ccccc23)NC(=O)[C@H](CCC(N)=O)NC1=O` [Cyclorasin 9A48, (Trp-Tle-val-Arg-Arg-Arg-nal-Arg-Fpa-nle-Gln)] (cyclo(W[Tle][dV]RRR[d2Nal]R[Phe(4-F)][dNle]Q)) displayed an IC50 of 48 ± 3 nM. On the same count and under the same terms, the same measure for `CCCC[C@H]1NC(=O)[C@H](CNC(=O)c2ccc(C#N)cc2)NC(=O)[C@H](CCCNC(=N)N)NC(=O)[C@@H](Cc2ccc3ccccc3c2)NC(=O)[C@H](CCCNC(=N)N)NC(=O)[C@H](CCCNC(=N)N)NC(=O)[C@H](CCCNC(=N)N)NC(=O)[C@@H](C)NC(=O)[C@H](C(C)(C)C)NC(=O)[C@H](Cc2c[nH]c3ccccc23)NC(=O)[C@H](CCC(N)=O)NC1=O` [Cyclorasin 9A44c, (Trp-Tle-ala-Arg-Arg-Arg-nal-Arg-Dap(4-cyanobenzoyl)-nle-Gln)] (cyclo(W[Tle][dA]RRR[d2Nal]R[Dap](X3)[dNle]Q)): 150 ± 50 nM. As to `CCCC[C@H]1NC(=O)[C@H](Cc2ccc(F)cc2)NC(=O)[C@H](CCCNC(=N)N)NC(=O)[C@@H](Cc2ccc3ccccc3c2)NC(=O)[C@H](CCCNC(=N)N)NC(=O)[C@H](CCCNC(=N)N)NC(=O)[C@@H](CCCNC(=N)N)NC(=O)[C@@H](C)NC(=O)[C@H](CO)NC(=O)[C@H](Cc2c[nH]c3ccccc23)NC(=O)[C@H](CCC(N)=O)NC1=O` [Cyclorasin 9A17, (Trp-Ser-ala-arg-Arg-Arg-nal-Arg-Fpa-nle-Gln)] (cyclo(WS[dA][dR]RR[d2Nal]R[Phe(4-F)][dNle]Q)), the IC50 amounted to 720 ± 310 nM.

In turn, `CCCC[C@H]1NC(=O)[C@H](C)NC(=O)[C@H](CCCNC(=N)N)NC(=O)[C@@H](Cc2ccc3ccccc3c2)NC(=O)[C@H](CCCNC(=N)N)NC(=O)[C@H](CCCNC(=N)N)NC(=O)[C@H](CCC(=O)N[C@@H](CCCCN)C(N)=O)NC(=O)[C@@H](C)NC(=O)[C@H]([C@@H](C)O)NC(=O)[C@H](Cc2c[nH]c3ccccc23)NC(=O)[C@@H](CO)NC1=O` [Cyclorasin 9A(Fpa5A), (Arg-Arg-nal-Arg-Ala-nle-ser-Trp-Thr-ala-Gln)-Lys] (cyclo(RR[d2Nal]RA[dNle][dS]WT[dA]E([Lys-NH2]))) yielded a half-maximal inhibitory concentration (IC50) above 10000 nM.

The compound `CCCC[C@H]1NC(=O)[C@H](Cc2ccc(F)cc2)NC(=O)[C@H](CCCNC(=N)N)NC(=O)[C@@H](Cc2ccc3ccccc3c2)NC(=O)[C@H](CCCNC(=N)N)NC(=O)[C@H](CCCNC(=N)N)NC(=O)[C@H](CCCNC(=N)N)NC(=O)[C@@H](C(C)C)NC(=O)[C@H]([C@@H](C)O)NC(=O)[C@H](Cc2c[nH]c3ccccc23)NC(=O)[C@H](CCC(N)=O)NC1=O` [Cyclorasin 9A47, (Trp-Thr-val-Arg-Arg-Arg-nal-Arg-Fpa-nle-Gln)] (cyclo(WT[dV]RRR[d2Nal]R[Phe(4-F)][dNle]Q)) had an IC50 of 86 ± 11 nM.

Take `CCCC[C@H]1NC(=O)[C@H](Cc2ccc(F)c(F)c2)NC(=O)[C@H](CCCNC(=N)N)NC(=O)[C@@H](Cc2ccc3ccccc3c2)NC(=O)[C@H](CCCNC(=N)N)NC(=O)[C@H](CCCNC(=N)N)NC(=O)[C@H](CCCNC(=N)N)NC(=O)[C@@H](C)NC(=O)[C@H]([C@@H](C)O)NC(=O)[C@H](Cc2c[nH]c3ccccc23)NC(=O)[C@H](CCC(N)=O)NC1=O` [Cyclorasin 9A43, (Trp-Thr-ala-Arg-Arg-Arg-nal-Arg-Phe(3,4-difluoro)-nle-Gln)] (cyclo(WT[dA]RRR[d2Nal]R[Phe(3,4-F2)][dNle]Q)): the IC50 is 64 nM and the “increase in Ras binding affinity upon residue substitution” value came to 2 fold. For `CCCC[C@H]1NC(=O)[C@H](Cc2ccc(F)cc2)NC(=O)[C@H](CCCNC(=N)N)NC(=O)[C@@H](Cc2ccc3ccccc3c2)NC(=O)[C@H](CCCNC(=N)N)NC(=O)[C@H](CCCNC(=N)N)NC(=O)[C@H](CCC(=O)N[C@@H](CCCCN)C(N)=O)NC(=O)[C@@H](C)NC(=O)[C@H]([C@@H](C)O)NC(=O)[C@H](C)NC(=O)[C@@H](CO)NC1=O` [Cyclorasin 9A(Trp8A), (Arg-Arg-nal-Arg-Fpa-nle-ser-Ala-Thr-ala-Gln)-Lys] (cyclo(RR[d2Nal]R[Phe(4-F)][dNle][dS]AT[dA]E([Lys-NH2]))), 7200 ± 1000 nM corresponded to half-maximal inhibition (IC50). Take `C[C@H]1NC(=O)[C@H](Cc2ccc(F)cc2)NC(=O)[C@H](CCCNC(=N)N)NC(=O)[C@@H](Cc2ccc3ccccc3c2)NC(=O)[C@H](CCCNC(=N)N)NC(=O)[C@H](CCCNC(=N)N)NC(=O)[C@H](CCC(=O)N[C@@H](CCCCN)C(N)=O)NC(=O)[C@@H](C)NC(=O)[C@H]([C@@H](C)O)NC(=O)[C@H](Cc2c[nH]c3ccccc23)NC(=O)[C@@H](CO)NC1=O` [Cyclorasin 9A(nle6dA), (Arg-Arg-nal-Arg-Fpa-ala-ser-Trp-Thr-ala-Gln)-Lys] (cyclo(RR[d2Nal]R[Phe(4-F)][dA][dS]WT[dA]E([Lys-NH2]))): inhibition was half-maximal at 7700 ± 5600 nM (IC50). Same read-out and setting: next, `CCCC[C@H]1NC(=O)[C@H](Cc2ccc(F)cc2)NC(=O)[C@H](CCCNC(=N)N)NC(=O)[C@@H](Cc2ccc3ccccc3c2)NC(=O)[C@H](CCCNC(=N)N)NC(=O)[C@H](CCCNC(=N)N)NC(=O)[C@H](CCCNC(=N)N)NC(=O)[C@@H](CC(C)C)NC(=O)[C@H](C(C)(C)C)NC(=O)[C@H](Cc2c[nH]c3ccccc23)NC(=O)[C@H](CCC(N)=O)NC1=O` [Cyclorasin 9A41, (Trp-Tle-leu-Arg-Arg-Arg-nal-Arg-Fpa-nle-Gln)] (cyclo(W[Tle][dL]RRR[d2Nal]R[Phe(4-F)][dNle]Q)): 2000 ± 900 nM. Same read-out and setting: next, `CCCC[C@H]1NC(=O)[C@H](Cc2ccc(F)cc2)NC(=O)[C@H](CCCNC(=N)N)NC(=O)[C@@H](Cc2ccc3ccccc3c2)NC(=O)[C@H](C)NC(=O)[C@H](CCCNC(=N)N)NC(=O)[C@H](CCC(=O)N[C@@H](CCCCN)C(N)=O)NC(=O)[C@@H](C)NC(=O)[C@H]([C@@H](C)O)NC(=O)[C@H](Cc2c[nH]c3ccccc23)NC(=O)[C@@H](CO)NC1=O` [Cyclorasin 9A(Arg2A), (Arg-Ala-nal-Arg-Fpa-nle-ser-Trp-Thr-ala-Gln)-Lys] (cyclo(RA[d2Nal]R[Phe(4-F)][dNle][dS]WT[dA]E([Lys-NH2]))): 940 ± 290 nM.

For the origin of these results see patent US10736932B2, “Small molecule Ras inhibitors” (Ohio State Innovation Foundation, priority 2014, dated 2020).
